In patent publication US20240327331A1, “ESTERS OF 7-COOH CBD DERIVATIVES AND THEIR USE AS PREVENTION, PROPHYLAXIS OF PROGRESSION, AND/OR TREATMENT OF NEUROGENERATIVE DISEASES” (Receptor Pharma INC, priority 2021, published 2024):

Assays:
[1] = tested on: CB1 and CB2 receptors as well as the voltage gated Na channel and mono-amine transporters; details: physiological relevant concentrations; cited from earlier work
GPR3 receptor [2] = biological target: T1, GPR3 receptor (Homo sapiens, UniProt P46089); experiment: PathHunter β-arrestin2 recruitment assay in CHO-K1 cells expressing GPR3-PK; assay type: cell-based; parameters: host or cells: CHO-K1 (PathHunter eXpress kit); details: for mode of action at the GPR3 receptor (β-arrestin2 recruitment): 0.1 μM, 1 μM and 10 μM, FIG. 1
Excerpt: The PathHunter™ eXpress kits containing Chinese hamster ovary (CHO)-K1 cells co-expressing EA-O-arrestin2 human and GPR3-PK were purchased from DiscoverX (Fremont, CA). All cannabinoid ligands were purchased from BDG Synthesis (Wellington, New Zealand).
PathHunter™ eXpress kits were used to measure GPR3-mediated β-arrestin2 recruitment following manufacturer's instructions. In this system, Chinese hamster ovary (CHO)-K1 cell line are stably expressing the GPR3 receptors which were fused to a “ProLink (PK)” fragment of βi-galactosidase to form GPR3-PK. The remaining sequence of β-galactosidase enzyme acceptor (EA) was linked to β-arrestin2 to form EA-β-arrestin2. Recruitment of Si-arrestin2 by receptor activation causes complementation of the two enzyme fragments. Levels of the active enzyme are the direct result of β-arrestin2 recruitment caused by receptor activation and quantified using the PathHunter detection reagent containing β-galactosidase substrates. Cells were plated in DiscoverX cell plating reagent1 in 384-well plates and cultured for 24-48 hours prior to experimentation in a humidified atmosphere at 37° C. and 5% CO2. Cannabinoid ligands were diluted in DiscoverX cell plating reagent1. Cells were then incubated with ligand at 37° C. following manufacturer's recommendations, followed by incubation with detection reagent in the dark for 1 hour at 23° C. Luminescence signal was then detected using a TECAN GENios Pro microplate reader.
Ligand-induced changes in R-arrestin2 recruitment to GPR3 were expressed as percent basal relative luminescence units, which was calculated by dividing luminescence readings in the presence of ligands by basal luminescence readings, times 100. Concentration-response curves were generated by performing nonlinear regression analysis using GraphPad Prism (GraphPad Software, La Jolla, CA). Data were analyzed using one-way analysis of variance (ANOVA) followed by NewmanKeuls post-test. Data points shown are presented as mean±SEM, and were obtained from three independent experiments performed in quadruplicate.
To determine whether CBD and its human metabolites 6-OH-CBD, 7-OH-CBD and 7-COOH-CBD are capable of changing S3-arrestin2 recruitment to GPR3, β-arrestin2 recruitment assays were performed using 0.1 μM and 1 μM and 10 μM concentrations.

[3] = tested on: animal models of epilepsy; details: cited from earlier work
[4] = tested on: icv streptozotocin (stz) rat model of Alzheimer Disease; experiment: Novel object recognition test in icv streptozotocin rat model of Alzheimer Disease; assay type: in vivo, Wistar rats; details: STZ 3 mg/kg icv, daily treatment 8 days, test after 24 h; 1j 25 mg/kg ip, 7-COOH-CBD 20 mg/kg; N=6
Excerpt: This in vivo model represents a model for the most frequent form of Alzheimer Disease, the late onset or ‘sporadic’ form. The icv injection of stz in the rat brain induces pathological changes that are observed in patients with Alzheimer Disease, like accumulation of beta-amyloid and Tau-protein and the well-known cognitive impairment. This well-known model was first described in the 90-ies by Mayer et al. (1990) and Lannert et al. (1998). The procedure for the creation of the model has recently been described in detail by Moreiro-Silva et al. (2019). In short, a 1-3 mg/kg dose of stz is injected bilateraly by icv injection in Wistar rats, and the animals are allowed to recover for a period of 7 days, after which animals can be evaluated for neurodegenerative changes in behaviour and/or by imaging of the brain.
The novel object recognition data were analyzed using the Student's t-test, with differences being considered significant if p<0.05.
On day 8, the animals were subjected to the novel object recognition (NOR) behavioural test. All objects used for the is test had similar textures, colors, and sizes but distinctive shapes. The rats were placed in a rectangular arena (76×49×57 cm) containing two identical objects (A1+A2) for the habituation and training phase. […] The discrimination index was calculated by: […]

[5] = after CBD, in the body; cited from earlier work
GPR3 receptor [6] = biological target: T1, GPR3 receptor; details: cited from earlier work; for mode of action at the GPR3 receptor: Laun and Song 2017, Lunn et al 2006

T1 sequence (P46089 whole entry): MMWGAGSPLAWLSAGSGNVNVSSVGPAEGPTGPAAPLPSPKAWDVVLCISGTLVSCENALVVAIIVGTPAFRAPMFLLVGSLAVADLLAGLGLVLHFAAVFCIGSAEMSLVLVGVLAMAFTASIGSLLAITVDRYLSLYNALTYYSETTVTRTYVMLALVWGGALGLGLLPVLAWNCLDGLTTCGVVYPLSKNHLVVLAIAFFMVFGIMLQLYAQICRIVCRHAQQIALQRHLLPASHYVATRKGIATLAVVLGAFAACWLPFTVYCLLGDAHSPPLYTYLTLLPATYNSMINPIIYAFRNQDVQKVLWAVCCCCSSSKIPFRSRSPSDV

Molecule | mode of action at the GPR3 receptor (β-arrestin2 recruitment) (GPR3 receptor [2]) | anticonvulsant action [3] | long-term memory index (discrimination index), novel object recognition [4] | mode of action at the GPR3 receptor (GPR3 receptor [6]) | also measured
C=C(C)[C@@H]1CCC(C(=O)O)=C[C@H]1c1c(O)cc(CCCCC)cc1O [Example 7-COOH-CBD, (3R-trans)-3-(2,6-dihydroxy-4-pentylphenyl)-4-(1-methylethenyl)-1-cyclohexene-1-carboxylic acid] | full antagonist | devoid of any anticonvulsant action | 79.6±3.4 | – | binding or modulation in in vitro binding/target panel [1]: no binding or modulation properties; competition with SR144528 at the GPR3 binding site (GPR3 receptor [2]; 10 μM 7-COOH-CBD, ascending concentrations of SR144528): displaces the inverse agonist from the GPR3 binding site; plasma levels of metabolite relative to parent compound CBD [5]: up to 50 fold
C=C(C)[C@@H]1CCC(CO)=C[C@H]1c1c(O)cc(CCCCC)cc1O [Example 7-OH-CBD, 7-hydroxy-CBD] | weak agonists | equipotency to CBD | – | – | plasma levels of metabolite relative to plasma levels of parent compound CBD [5]: about 50%
C=C(C)[C@@H]1C[C@H](O)C(C)=C[C@H]1c1c(O)cc(CCCCC)cc1O [Example 6-OH-CBD] | weak agonists | – | – | – | –
C=C(C)[C@@H]1CCC(C)=C[C@H]1c1c(O)cc(CCCCC)cc1O [CBD, Cannabidiol] | inverse agonist | – | – | inverse agonist | IC50 (GPR3 receptor [6]; inverse agonism): 1220 nM; inhibition of GPR3 receptor activity (GPR3 receptor [6]; inverse agonist, dose-dependent): 39%
(3R-trans)-3-(2,6-dihydroxy-4-pentylphenyl)-4-(1-methylethenyl)-1-cyclohexene-1-carboxylic acid cyclopropane ester [Example 1j] | – | – | 80.5±3.9 | – | –
COc1ccc(S(=O)(=O)c2cc(OC)ccc2S(=O)(=O)c2ccc([C@H](C)NS(C)(=O)=O)cc2)cc1 [Sch.336, N-[1(S)-[4-[[4-methoxy-2-[(4-methoxyphenyl)sulfonyl]phenyl]-sulfonyl]phenyl]ethyl]methanesulfonamide] | – | – | – | inverse agonist | –
